# In paper PMC8840081, “Phenylalanine-Based AMPA Receptor Antagonist as the Anticonvulsant Agent with Neuroprotective Activity—In Vitro and In Vivo Studies” (Molecules, 2022):
# What was measured:
# [1] = system: tactile allodynia in oxaliplatin-treated mice; assay: oxaliplatin-induced neuropathic pain model, von Frey test; format: in vivo; conditions: 10 and 30 mg/kg i.p., early and late phase
# Procedure: Behavioral experiments were carried out in male Albino Swiss (CD-1) mice weighing 18–22 g. The mice were kept in cages, in groups of 10 animals. They had free access to food and water before experiments, and were maintained at room temperature 22–24 °C, under 12:12 (light/dark) cycle. For the assays the animals were selected randomly. After the experiments the animals were euthanized by cervical dislocation. Experimental procedures for in vivo tests were approved by the Local Ethics Committee of the Jagiellonian University in Krakow (Approval No. 33/2018; release date: 1.02.2018) and the treatment of animals was performed in full accordance with ethical standards laid down in respective Polish and EU regulations (Directive 2010/63/EU).
# Oxaliplatin was purchased from Activate Scientific GmbH (Prien, Germany). PTZ and STZ were provided by Merck KGaA (Darmstadt, Germany). For the in vivo tests, the compound 1 was suspended in 1% Tween 80 solution (Polskie Odczynniki Chemiczne, Gliwice, Poland), then being administered intraperitoneally 1 h before tests. For the evaluation of anticonvulsant properties of the test compound, a fixed dose of 100 mg/kg, was used. Since many AEDs at lower doses are used as analgesic drugs, for pain tests the doses 10 and 30 mg/kg were selected. […]
# [2] = oxygen radical absorbance capacity fluorescent (ORAC-FL) assay; conditions: Trolox equivalent, calculated at 5 µM of compounds and Trolox
# Procedure: The ORAC-FL was performed according to procedure described in the literature. The reagents used in this assay, TX, fluorescein and 2,2′-azobis(2-amidinopropane) dihydrochloride (AAPH), were purchased from Sigma-Aldrich, Inc., St. Louis, MO, USA. The prepared ORAC-FL reagent consisted of 0.3 μM of fluorescein and 100 µM of AAPH dissolved in PBS buffer. The compounds and the reference antioxidant TX were tested at the concentration 2.5 µM and the results were compared to the blank in which no antioxidant was present. The assays were performed in black 96-well plates. The fluorescence readings were taken by a microplate reader EnSpire (PerkinElmer, Waltham, MA, USA) every minute for a duration of 240 min. The excitation wavelength was 485 nm and the emission wavelength was 520 nm. The area under the fluorescence decay curve (AUC) was calculated next by GraphPad Prism™ software (version 5.01, San Diego, CA, USA). All measurements were performed in triplicate. The TX equivalent (TE) was calculated next using the following Equation (1):TE = [(AUCsample − AUCblank)/(AUCTX − AUCblank)] × [CTX/Csample](1)
# SH-SY5Y cells = assay: ROS assay (DCFH-DA), H2O2-induced ROS accumulation; format: cell-based, human; conditions: compound 50 µM, 500 µM H2O2, 3 h
# Procedure: All cell culture protocols and assay conditions were applied as we reported previously. SH-SY5Y (ATCC® CRL-2266™) cell line was purchased from ATCC (Manassas, VA, USA). IMR-32 (ATCC® CCL-127™) cell line was kindly provided by the Department of Oncogenomics, Academisch Medisch Centrum, Amsterdam, Holland. Before each test SH-SY5Y or IMR-32 cells were seeded in 96-well plates with transparent bottom at a concentration of 2.5 × 10^4 cells/well in 100 μL of respective cell culture medium and cultured for 24 h to reach 70% confluence. • Cell Viability
# During this assay SH-SY5Y cells were preincubated first for 1 h with 250 μM solution of DCFH-DA (Sigma-Aldrich, Inc., St. Louis, MO, USA) in HBSS buffer. After DCFH-DA was removed, cells were washed with HBSS and incubated next for 1 h with 50 μM of compound 1 or 8. Next, the H2O2 was added at final concentration 500 μM. After 3 h of incubation, the fluorescence was measured using a microplate reader EnSpire (PerkinElmer, Waltham, MA, USA) with an excitation wavelength of 486 nm and emission wavelength of 530 nm. All measurements were performed in triplicate and results are shown as mean ± SD.
smiles,measurement,setting,value
NC(Cc1cc(-c2cc(O)ccc2O)c(Cl)c([N+](=O)[O-])c1)C(=O)O (stereo not drawn) [Compound 1],"effect on tactile allodynia, von Frey test",[1],not effective
same,ORAC (TE),[2],3.46 TE
same,intracellular ROS level,SH-SY5Y cells,statistically significant decrease
